# In patent US20190350955A1, “METHODS AND PHARMACEUTICAL COMPOSITIONS FOR THE TREATMENT OF CARDIOMYOPATHIES” (INSERM (Institut National de la Sante et de la Recherche …, priority 2016, published 2019):
# Experiments:
# Nmrk2 promoter = Nmrk2 promoter luciferase reporter assay in NRC; type: cell-based, rat; conditions: for activity of the Nmrk2 promoter (p3009-Luc): NRC co-transfected with PPARα and RXR expression vectors; for Nmrk2 promoter induction by AICAR: NRC, p3009-Luc, antagonist added 30 minutes before AICAR for 24 h
# Protocol: Isolation and Treatments of Neonatal Rat Cardiomyocytes (NRC) NRC were isolated as described previously (Diguet et al., 2011). 1-day-old rat pups were killed by decapitation and the cardiac ventricles were harvested and minced into 1 to 2-mm wide cubes with scissors. After washing with Tyrode solution, heart fragments were subjected up to 10 rounds of digestion with 0.05 mg/ml of Liberase Blendzyme 4 (Roche Applied Science) in 10 ml oxygenated Tyrode solution under agitation at 37° C. for 10 minutes. The supernatant of the first digestion was discarded and the following digestions were centrifuged and the cell pellet dissociated in 2 ml of DMEM, 10% FCS. The different fractions were pooled and centrifuged on a discontinuous Percoll gradient (bottom 58.5%. top 40.5%. 30 min. 3000 rpm) to enrich in cardiomyocytes at the interface between the 2 Percoll solutions. Non cardiac cells containing mainly fibroblasts were at the top of the tubes. Neonatal cardiomyocytes were seeded at a density 5×10^5 cells/well in 6-well plates coated with 10 μg/ml of laminin (BD Biosciences) in DMEM without pyruvate, with glucose 4.5 g/l, 10% horse serum, 5% FCS and cultured at 37° C. in 1% CO, atmosphere. To assay the impact on NAD^+ and Nmrk2 expression, Azaserin and FK866 drugs were added in the culture medium at day 5 and renewed everyday when the treatment was prolonged over several days. The same was done for NAD^+, NR and AICAR (5-aminoimidazole-4-carboxamide-1-β-D-ribofuranoside). AICAR was administrated for 24 h only. Doses are indicated in the legends. For treatment of transfected cells (see next section), AICAR, FK866 and PPAR agonists and antagonist were administrated 1 day after transfection. PPAR agonists: GW7647 for PPARα, GW501516 for PPARβ/δ and GW1929 for PPARγ; PPAR antagonists: GW6471 PPARα, GSK3787 for PPARβ/δ and GW9662 for PPARγ were ordered from SIGMA ALDRICH CHIMIE, Saint Quentin Fallavier, France.
# The transcription initiation site of mouse Nmrk2 promoter was determined by 5′RACE and was conform to the reported site in the Genebank (NM_027120.2). The promoter of the mouse Nmrk2 gene was cloned from C57B16/N genomic DNA by PCR, and inserted into a pGL4.10[luc2] luciferase reporter plasmid (Promega prod no E6651). Subsequent deletions were performed by enzymatic digestion or primer mediated subcloning of the original fragment. 2.5×10^5 cardiomyocytes in 12-well plates were co-transfected at day 2 of culture with 1 μg of Nmrk2 pGL4.10[luc2] constructs and 100 ng of pGL4.73[hRluc/SV40] Vector (Promega prod no E6911) as an internal control of transfection efficiency using Lipofectamine 2000 (Lifetechnology) as indicated by the supplier. In the case of AICAR treatment, Luciferase activity was analyzed 48 h later with the Dual-Luciferase Assay System (Promega).
# The pcDNA3 vectors harboring dominant negative AMPK, PPARα, PPARβ and PPARγ as well as RXR genes were kindly provided by Pr. Michel Raymondjean (El Hadri et al. (2015). AMPK Signaling Involvement for the Repression of the IL-1beta-Induced Group IIA Secretory Phospholipase A2 Expression in VSMCs. Journal 10, e0132498; Ravaux et al. (2007). Inhibition of interleukin-1 beta-induced group 11A secretory phospholipase A2 expression by peroxisome proliferator-activated receptors (PPARs) in rat vascular smooth muscle cells: cooperation between PPARbeta and the proto-oncogene BCL-6. Journal 27, 8374-8387; Woods et al. (2000). Characterization of the role of AMP-activated protein kinase in the regulation of glucose-activated gene expression using constitutively active and dominant negative forms of the kinase. Journal 20, 6704-6711). These vectors were cotransfected at a dose of 100 ng/well in 24-well plates with 500 ng of Nmrk2 luciferase constructs.
# Lmna^H222P/H222P mice [1] = assay: qPCR of cardiac remodeling markers Myh7, Nppa, Col1a2 in heart; type: in vivo, mouse; conditions: NAM 500 mg/kg/q.a.d. IP, 9 weeks
# Protocol: (§1) Mice were bred in an accredited animal facility (accreditation number: C-75-13-08). All experiments on mice were approved by the Comité d'éthique en expérimentation animate Charles Darwin No 5. Mice Lmna^H222P/H222P were backcrossed 8 times to 129S2/SvPasOrlRj strain mice to obtain pure genetic background. Male mice used for the studies were maintained under a 12 h light/12 h dark cycle at constant temperature (23° C.) with free access to food and water. Nicotinamide riboside (NR) complementation: Animals at 17 weeks of age were fed for 9 weeks with either a chow diet (A04: Scientific Animal Food & Engineering) or a chow diet complemented with 0.25% of NR (kindly provided by ChromaDex, Inc. California) corresponding to a dose of 400 mg/kg/day for a mouse weighing 25 g eating 4 g of food per day. Nicotinamide (NAM) treatment: Animals at 17 weeks of age were injected intraperitoneally (IP) every two days (q.a.d.) for 9 weeks with either physiologic serum or physiologic serum added with NAM at 50 mg/ml corresponding to a dose of 500 mg/kg for a mouse weighing 25 g.
# Total RNAs were extracted from around 5 mg of mouse heart using RNeasy Mini kit (Qiagen). RNAs integrity were controlled on the Bioanalyzer 2100 (Agilent). […] Relative mRNA transcript levels calculated using the 2^ΔCT method were normalized by comparison to housekeeping mRNA.
# Lmna^H222P/H222P mice [2] = assay: NAD+ content quantification in heart and liver of treated Lmna H222P/H222P mice; type: in vivo, mouse; conditions: NAM 500 mg/kg/q.a.d. IP, from 17 weeks of age for 9 weeks, vs placebo
# Protocol: as §1, with “Nicotinamide (NAM) treatment: Animals at 17 weeks of age were injected intraperitoneally (IP) every two days (q.a.d.) for 9 weeks with either physiologic serum or physiologic serum added with NAM at 50 mg/ml corresponding to a dose of 500 mg/kg for a mouse weighing 25 g.” left out
# Fresh mouse tissues were homogenized and processed according to previous report (Sander B J, Oelshlegel F J & Brewer G J (1976) Quantitative analysis of pyridine nucleotides in red blood cells: a single-step extraction procedure. Anal. Biochem. 71: 29-36). The concentration of NAD+ in heart tissue was determined using a spectrophotometric assay at 550 nm based on an alcohol dehydrogenase cycling reaction, in which a Methyl Thiazolyl Tetrazolium (MTT) is reduced to Formazan. […]
# SRF^HKO mice = assay: RT-qPCR gene expression in SRF HKO heart; type: in vivo, mouse; conditions: i.p. administration from D8 to D15
# Description: (§2) Transgenic mice. All experiments with animals conformed to the Directive 2010/63/EU of the European Parliament and were approved by the ethics committee Charles Darvin #5 (agreement 00369.01). SRF^HKO mice bear the tamoxifen-inducible α-MHC-MerCrMer transgene and the Siffloxed allele (Sf/Sf) as described previously (Parlakian et al. (2005). Temporally controlled onset of dilated cardiomyopathy through disruption of the SRF gene in adult heart. Journal 112, 2930-2939; Tritsch et al. (2013). An SRF/miR-1 axis regulates NCX1 and Annexin A5 protein levels in the normal and failing heart. Journal 98, 372-380). Transgenic mice have been bred for more than 20 generations in C57BL/6N background. The mice were housed in standard animal facility (CEF. Hôpital Pitié Salpétrière, agreement A-75-13-15, 75013 Paris), under a 12-h dark/light cycle. Tamoxifen (Sigma T5648) was administrated by i.p. injection at a dose of 0.7 mg diluted in 100 μl peanut oil at day (D) 0, D1 and D2. (Sf/Sf) littermates injected with tamoxifen at the same time than mutant were used as controls.
# Nicotinamide and nicotinamide riboside i.p. administration. Nicotinamide was diluted in saline at 300 mM. Nicotinamide riboside (NR) bromide salt stock solution (1M) was in 10 mM citric acid pH 6.0. For injection 3 volumes of NR stock solution was mixed extemporaneously with 7 volumes of PBS to obtain a 300 mM injectable solution at pH 7.2. Mice were injected daily at a dose of 1 μmole/g body weight.
# SRF^HKO and control (Sf/Sf) mice were administered either rodent maintenance SAFE A04 diet containing 3.10% crude fat. 16.10% crude proteins. 26% starch and 1.9% sugar (Scientific Animal Food Engineering, Paris, France) or SAFE # A04 diet supplemented with NR. NR was provided by Chromadex under brand name NIAGEN (Irvine Calif. USA). The soft pellets were manually prepared every 5 days by mixing 1.65 g of NR into 500 g of powdered SAFE A04 diet and 235 ml of water to reach 2.24 mg of NR/g (wet weight). Control diet was prepared in the same way omitting NR. Mice had ad libitum access to food and water. Mice (average body weight 31.3±0.82 g, no difference between groups) consumed an average of 6 g of soft food per day, reaching a daily intake of 450 mg NR/kg. No difference in food intake was observed between SRF^HKO and control mice.
# cDNAs were reverse transcribed from RNA (1.5 μg) extracted in TRIzol (Thermofisher) from cell cultures and tissues using the Superscript II Reverse Transcriptase (Life Technologies). Quantitative PCR was carried out on a Light Cycler 480 (Roche Diagnostics) using Fast Start SYBR Green Master (Roche Diagnostics). Quantification of gene expression was calculated as R=2^ΔCt(Ref Cp−target Cp), with Hprt used as a as reference. Primers were designed using the NCBI Primer-BLAST software. Primer sequences are available on request.
# Lmna^H222P/H222P mice [3] = assay: Echocardiography and heart size in treated Lmna H222P/H222P mice; type: in vivo, mouse; conditions: NAM 500 mg/kg/q.a.d. IP, 9 weeks, vs placebo
# Protocol: as §1
# Mouse transthoracic echocardiography was performed using an ACUSON 128XP/10 ultrasound with a 11 Mhz linear probe (Mountain View).MHz transducer applied to the chest wall. Mice were maintained under anesthetized with 0.75% isoflurane anaesthesia (0.75% in O2) and placed on a heating pad (25° C.). Left ventricular (LV) parameters were obtained from M-mode recordings in a modified short axis view. The intra ventricular septum (IVS), LV posterior wall (LVPW), LV diameter (LVD) in diastole and systole, the percentage of fractional shortening (FS) and the heart rate (HR) were measured from the mean of at least three separate cardiac cycles. A “blinded” echocardiographer, unaware of the genotype and the treatment, performed the examinations.
# SRF^HKO hearts = assay: Transcriptomic analysis of SRF HKO hearts after phenylephrine administration; type: in vivo, mouse
# Description: as §2
# (§3) The series of mice treated with PE and the impact of the treatment on cardiac parameters have been published previously (Tritsch et al. (2013). An SRF/miR-1 axis regulates NCX1 and Annexin A5 protein levels in the normal and failing heart. Journal 98, 372-380). Briefly. […]
# control hearts = assay: Transcriptomic analysis of control hearts after phenylephrine administration; type: in vivo, mouse; conditions: PE 80 mg/kg/day for 15 days
# Description: as §2, §3
smiles,measurement,setting,value
CC(C)(Sc1ccc(CCN(CCCCC2CCCCC2)C(=O)NC2CCCCC2)cc1)C(=O)O [GW7647],activity of the Nmrk2 promoter (p3009-Luc),Nmrk2 promoter; agonist 0.6 μM,increased
O=C(Nc1ccccc1)c1cc([N+](=O)[O-])ccc1Cl [G9662],Nmrk2 promoter induction by AICAR,Nmrk2 promoter,Neither the PPARβ antagonist GSK3787 nor the PPARγ antagonist G9662 had any effect
"NC(=O)c1cccnc1 [NAM, Nicotinamide]","expression of Myh7, Nppa and Col1a2",Lmna^H222P/H222P mice [1],no changed expression
same,NAD+ content in liver and heart,Lmna^H222P/H222P mice [2],did not exhibit any changes
same,Srf and Nmrk2 expression levels,SRF^HKO mice,not changed
same,cardiac contractility,Lmna^H222P/H222P mice [3],no significant changes
same,left-ventricular end diastolic diameter,Lmna^H222P/H222P mice [3],no significant changes
same,left-ventricular end systolic diameter,Lmna^H222P/H222P mice [3],no significant changes
"CNC[C@H](O)c1cccc(O)c1 [PE, phenylephrin]",Nmrk2 expression,"SRF^HKO hearts; PE 80 mg/kg/day for 15 days, SRF HKO hearts",57 fold
same,Nampt and Pnp expression,SRF^HKO hearts; PE treatment,depressed
same,Nmrk2 expression,control hearts,4 fold
O=C(NCCS(=O)(=O)c1ccc(C(F)(F)F)cn1)c1ccc(Cl)cc1 [GSK3787],Nmrk2 promoter induction by AICAR,Nmrk2 promoter,Neither the PPARβ antagonist GSK3787 nor the PPARγ antagonist G9662 had any effect
CCC(=O)NC[C@H](Cc1ccc(OCCc2nc(-c3ccccc3)oc2C)cc1)N/C(C)=C\C(=O)c1ccc(C(F)(F)F)cc1 [G6471],activity of the Nmrk2 promoter (p3009-Luc),Nmrk2 promoter; antagonist 10 μM,repressed
same,Nmrk2 promoter induction by AICAR,Nmrk2 promoter,blunted
